“Also recorded” adds a separate entry of the source.
How the values were obtained:
[1] = test system: Jurkat cells expressing dimerizable FADD; settings: dimerizer and zVAD.fmk, 48 hours
primary cortical neurons = experiment: Oxygen-glucose deprivation (OGD) induced death of primary cortical neurons, MAP2 cytoblot; format: cell-based; settings: OGD 90 minutes, 24 hours recovery; 30 μM
Experimental: Cells were allowed to recover in the presence of the compounds (except for the CNQX/MK801) for 24 hours, and specific neuronal viability was determined using MAP2 cytoblot. Values represent the percentages of live cells normalized to the compound treated cells, which were maintained in glucose-containing, non-deoxygenated media. **—P<0.02. […] Cells were allowed to recover in the presence of the compounds for 24 hours, and specific neuronal viability was determined using MAP2 cytoblot. Values represent the percentages of live cells normalized to the compound treated cells, which were maintained in glucose-containing, non-deoxygenated media. **—P<0.04.

RIP2 = biological target: T1, RIP2 (Homo sapiens, UniProt O43353); experiment: In vitro kinase assay: autophosphorylation of RIP2; format: biochemical; settings: RIP2-Myc from transfected 293T cells
T1 construct: expressed in transfected cells; host or cells: 293T
Source text: 293T cells were transfected with RIP-FLAG or RIP2-Myc vectors. […] Major bands corresponding to phosphorylated RIP, RIP2, asterisks, and IgG are shown.

B cell = B cell activation (LPS/IL-4) of splenocytes suppressed by zVAD.fmk, FACS; format: cell-based, mouse; settings: 100 μM zVAD.fmk, 30 μM compound, 72 hours
Experimental: Cells were stained with αB220-FITC antibody (Pharmingen), and B cell numbers were determined by FACS. Cell numbers are normalized to the number of cells in unstimulated control, which was set as 100%.

L929 cells = experiment: TNFα-induced CICD of L929 cells, ATP assay; format: cell-based, mouse; settings: no caspase inhibitor
Experimental: Cell viability was determined using ATP-Lite-M ATP assay (Packard). The values represent viability relative to the control lacking TNFα, which was set as 100% viability.
Cell viability in this and subsequent panels was determined by ATP-based viability assay. Numbers represent percentages of the live cells normalized to those in the untreated control wells. Throughout, error bars represent standard deviations. […] Numbers represent viability normalized to that of the corresponding compound-treated cells in the absence of FasL. […] Numbers represent viability normalized to that of the corresponding compound-treated cells in the absence of dimerizer. […] Cells were treated with TNFα (E, F, H), zVAD.fmk (E, F), or CHX (F) for 16 (F) or 24 (E, H) hours. Numbers represent viability normalized to that of the compound-treated cells in the absence of TNFα.

Jurkat cells = experiment: Apoptosis of Jurkat cells induced by FasL without or with cycloheximide; format: cell-based, human; settings: FasL or FasL/CHX, no zVAD
Experimental: Jurkat cells were treated with 5 ng/ml of FasL without (A) or with cyclohexamide (CHX) (B) to induce apoptosis, or 5 ng/ml FasL, 1 μg/ml of CHX and 100 μM of zVAD.fmk to induce CICD (B). […] Cell viability was determined after 24 hours of incubation with indicated reagents using CellTiter-Glo ATP assay. The values represent viability relative to the control Jurkat cells without the treatment of FasL, which was set as 100% viability.
Cells were stained with DiOC6 or annexin V and EGFP-PI as described in FIG. 26A and FIG. 26B. […] Cell viability was determined by an ATP assay. Numbers represent viability normalized to that of the compound-treated cells in the absence of TNFα. […]
We seeded cells in 96-well plates (white plates for luminescent assays; black plates for fluorescent assays; clear plates for MTT assay) at the density of 5,000-10,000 cells per well for adherent cells or 20,000-50,000 cells per well for suspension cells in 100 μl of the appropriate phenol red-free media. After incubation, we determined cell viability using one of the following methods. For the ATP assay, we used luminescence-based commercial kits (CellTiter-Glo, Promega or ATPLite-M, PerkinElmer) and analyzed luminescence using a Wallac Victor II plate reader (PerkinElmer). For Sytox assay, we incubated cells with 1 μM Sytox Green reagent for thirty minutes at 37° C., and then performed fluorescent reading. […]

U937 cells = experiment: Oxidative stress (menadione) induced death of U937 cells, ATP assay; format: cell-based, human; settings: 250 μM menadione, 24 hours
Experimental: Viability of TNFα/zVAD/DMSO or manadione/DMSO blank treated cells is also shown (- - -). Viability was determined using ATP-Lite-M assay (Packard). Numbers represent percentages of live cells. The values were normalized relative to the zVAD or DMSO treated controls, which were set as 100% viability.
In this and subsequent panels, cell viability was determined via ATP assay. Numbers represent viability normalized to that of the DMSO-treated cells in the absence of TNFα and menadione. Throughout, error bars represent standard deviations. […] Representative images are shown. […] Protein lysates were subjected to western blotting with antibodies to LC3 and to tubulin. The ratio of LC3-II to tubulin signals was calculated (“Ratio”) and normalized to the value in the control sample. […] Alternatively, cells were treated with 2 μM rapamycin. […] Numbers represent viability normalized to that of the compound-treated cells in the absence of TNFα. In FIG. 28H, expression of beclin-1 (“Bec”) and tubulin (“Tub”) in the stable populations of cells in FIG. 28G was analyzed by western blotting.

T1 sequence (O43353 whole entry, species assumed): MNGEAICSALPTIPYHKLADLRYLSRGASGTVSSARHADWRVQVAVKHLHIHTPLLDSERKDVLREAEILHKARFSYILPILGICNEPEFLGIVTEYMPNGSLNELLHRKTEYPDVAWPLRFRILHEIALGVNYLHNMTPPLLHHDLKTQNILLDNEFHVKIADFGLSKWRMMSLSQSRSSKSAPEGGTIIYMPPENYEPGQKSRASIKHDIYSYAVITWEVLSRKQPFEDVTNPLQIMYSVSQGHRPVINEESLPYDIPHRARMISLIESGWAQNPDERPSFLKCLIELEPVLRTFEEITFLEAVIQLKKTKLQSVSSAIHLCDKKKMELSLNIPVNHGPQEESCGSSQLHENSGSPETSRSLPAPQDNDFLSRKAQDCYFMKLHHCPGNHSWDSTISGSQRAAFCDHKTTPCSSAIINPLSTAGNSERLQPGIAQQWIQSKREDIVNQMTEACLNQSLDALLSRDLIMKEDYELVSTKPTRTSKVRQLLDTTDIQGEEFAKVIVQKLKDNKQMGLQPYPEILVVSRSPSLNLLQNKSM

methylthiohydantoin-tryptophane [Nec-1] was tested, and the “inhibition of necrotic death, in words” value [1] was “inhibited all published examples of necrotic cell death induced by DR activation in the presence of caspase inhibitors”, the “protection from OGD-induced neuronal death, in words” value (primary cortical neurons) was “protects primary cortical neurons from oxygen-glucose deprivation induced cell death; also recorded: attenuated OGD-induced death of cortical neurons” and the “effect on RIP2 autophosphorylation, in words” value (RIP2) was “lack of a Nec-1 effect on RIP2 autophosphorylation; also recorded: had no effect on RIP2 autophosphorylation”. For the same substance, the “B cell activation in the presence of zVAD.fmk, in words” value (B cell) was “promotes B cell activation; also recorded: attenuated suppression of B cell activation by zVAD.fmk”, the “protection of L929 cells from TNFα-induced CICD, in words” value (L929 cells) was “protects L929 cells from CICD; also recorded: unlike Nec-1; also recorded: efficiently inhibited the TNFα-induced necrotic death of L929 cells” and the “protection from apoptosis, in words” value (Jurkat cells) was “but not apoptosis induced by FasL or FasL/CHX; also recorded: lack of cytoprotection by Nec-1 in apoptotic Jurkat cells treated with FasL-CHX for 24 hours; also recorded: but not by Nec-1; also recorded: could not be inhibited by Nec-1; also recorded: had no effect on FasL-CHX-induced accumulation of annexin V-positive and propidium iodide (PI)-negative cells”. For the same substance, the “protection from menadione induced cell death, in words” value (U937 cells) was “did not block the “classic” oxidative stress-induced necrosis caused by menadione”.

Source: US20130158024A1, “TRICYCLIC NECROSTATIN COMPOUNDS” (priority 2005, published 2013)
